From article PMC10180197, “Novel Pyrimidine Derivatives as Antioxidant and Anticancer Agents: Design, Synthesis and Molecular Modeling Studies” (Molecules, 2023)

What was measured:
[1] = system: HaCaT cell line; assay: MTT cell viability assay, HaCaT; format: cell-based, human; conditions: 24 h
Description: (§1) The MTT (3-(4,5-dimethylthiazol-2-yl)-2,5-diphenyltetrazolium bromide) assay is a colorimetric method that is used for the evaluation of cell viability. MTT is converted into colored formazan crystals, indicating the activity of mitochondria and therefore the viability of the cells. Unlike dead cells, the metabolic processes of living cells are functional, meaning that the dehydrogenase enzymes are able to reduce the yellow MTT salt solution to purple crystals, at 37 °C. The intensity of the sample’s color, due to the amount of formazan crystals, is proportional to the number of the living cells in it. Additionally, the colored product is dissolved in various solubilizing agents, such as dimethyl sulfoxide (DMSO). The colored products can be quantitatively measured at 450 nm with a plate reader spectrophotometer. In this study, the human epidermal keratinocyte cell line (HaCaT) was treated with different concentrations (100 μM, 50 μM, 10 μM and 1 μM) of the tested compounds and then the viability rates at each effect were calculated.
(§2) Τhe MTT assay was used to evaluate cell viability or cell toxicity, depending on the cell line being tested. The experimental procedure was performed in a 96-well plate, where the cells were seeded and incubated (37 °C, 5% CO2) for 24 h to grow and cover the surface of the wells. Τhe seeding concentrations for the HaCaT and A549 cells were 30 × 10^4 cells/mL and 20 × 10^4 cells/mL, respectively. After the first incubation, the solutions of the compounds (with different concentrations) were added to the adherent cells and incubated for another 24 h. The compounds were tested in triplicate against the control (only cells in medium), the blank (only medium) and the positive/negative control (cells in 100 μM silibinin solution) triplicates. Silibinin, a flavonoid with known anticancer activities, was used as a negative control for the cell viability assay and as positive control for the cytotoxicity testing assay. The light-sensitive MTT-standard solution was prepared by dissolving 1 mg/mL MTT in PBS and then filtrated (in a […] filter (Millipore, Carrigtwohill, Ireland)). On the third day, an appropriate amount of ΜΤΤ solution was added to each well and the plate was incubated for 4 h. During the incubation time, the formazan crystals were formed, which were then dissolved with 100 μL DMSO per well. Finally, the plate was stirred for 30 min, and the optical density (OD) was measured in a plate reader spectrophotometer at 450 nm.

[2] = MTT cell viability assay, HaCaT; format: cell-based, human; conditions: human, HaCaT cells (epidermal keratinocyte cell line); for viability at 24 h, 10 μM: 10 μΜ; for viability at 24 h, 50 μM: 50 μΜ
Description: as §1, §2

[3] = system: A549 cell line; assay: MTT cytotoxicity assay, A549; format: cell-based, human; conditions: 24 h; for cytotoxicity at 10 µM / cytotoxicity at 50 µM / cytotoxicity at 100 µM: Homo sapiens; for cytotoxicity at 10 µM: read-out: % Cell Toxicity 10 μΜ; for cytotoxicity at 50 µM: read-out: % Cell Toxicity 50 μΜ; for cytotoxicity at 100 µM: A549, 100 μΜ, read-out: % Cell Toxicity 100 μΜ
Description: The compounds of this study were also tested for their cytotoxic effects against the adenocarcinomic human alveolar basal epithelial cell line (A549) at different concentrations (100 μM, 75 μΜ, 50 μM and 10 μM).
as §2

[4] = Reducing activity of the stable radical DPPH
Description: All the synthesized compounds were studied for their ability to interact with the stable free 2,2-diphenyl-1-picrylhydrazyl radical (DPPH) at a concentration of 100 μM after 20 min and 60 min (Table 4). This assay is based on the reduction of DPPH by transferring one electron from the antioxidant.
In vitro study was performed as reported previously by our group. In this experiment, 20 μL of the tested compound (from the stock solution), 980 μL EtOH and 1 mL ethanolic solution of DPPH (100 μM) were added in a testing tube in a final volume of 2 mL. The free radical scavenging ability was evaluated by recording the change of absorbance at 517 nm, produced by the reduction of DPPH, after 20 and 60 min at room temperature.

[5] = Experimental determination of lipophilicity as RM values (RP-TLC); format: physicochemical; conditions: methanol/water 70/30 v/v, 24 °C, SD < 10%
Text: Lipophilicity is an important physicochemical parameter of a drug candidate, linking solubility and membrane permeability with the ADMET (absorption, distribution, metabolism, elimination and toxicity) properties and the overall suitability of a molecule. Reversed-phase thin-layer chromatography was the method used to experimentally determine the lipophilic character of the synthesized compounds as RM values (Table 2). Lipophilicity was also theoretically calculated as clog P values using the Bio-Loom program of BioByte Corp (http://www.biobyte.com/, (accessed on 1 March 2023)). An attempt was made to correlate the experimental RM values with the theoretically calculated clog P values (Table 2). […] This disagreement could be attributed to several factors, e.g., different solvation, silanophilic interactions and hydrogen bonding.
Lipophilicity as RM values was determined through reversed-phase TLC (RP-TLC) on silica gel plates impregnated with 5% v/v liquid paraffin in light petroleum ether. Methanol/water mixture (70/30, v/v) was used as mobile phase. Closed chromatography tanks saturated with the mobile phase at 24 °C were used for the development of the plates while the spots were detected under UV light. For the determination of RM values, five individual measurements of Rf values were recorded, and the RM values were derived from the following Equation (1). (1) RM=log1/Rf−1

Row | SMILES | % Cell Viability 100 μΜ [1] | viability at 24 h, 10 μM [2] [%] | viability at 24 h, 50 μM [2] [%] | cytotoxicity at 10 µM ([3]; A549, 10 μΜ) [%] | cytotoxicity at 50 µM ([3]; A549, 50 μΜ) [%] | cytotoxicity at 100 µM [3] [%] | RA % 100 μM 20 min [4] | RA % 100 μM 60 min [4] | RM [5] | viability at 24 h, 100 μM ([2]; 100 μΜ) [%] | % Cell Toxicity 10 μΜ ([3]; A549, 10 μΜ) | % Cell Toxicity 50 μΜ ([3]; A549, 50 μΜ) | % Cell Viability 10 μΜ ([1]; 10 μΜ) | viability at 24 h, 1 μM ([2]; 1 μΜ) [%]
1 | O=c1[nH]c(=S)[nH]c2nc(-c3ccc(Cl)cc3)cc(-c3ccc(Cl)cc3Cl)c12 [Compound 2h, 7-(4-chlorophenyl)-5-(2,4-dichlorophenyl)-2-thioxo-2,3-dihydropyrido [2,3-d]pyrimidin-4(1H)-one] | no | 100 | 89.9 | 49.1 | 76.9 | 100 | no | no | −0.48 |  |  |  |  | 
2 | O=C(/C=C/c1ccccc1)c1ccccc1 [Compound 1a, (E)-1,3-diphenylprop-2-en-1-one] | no | 55.1 |  | 41.8 | 81.6 | 100 | 22% | no | −0.57 |  |  |  |  | 
3 | O=C(/C=C/c1ccc(Cl)cc1)c1ccc(Cl)cc1 [Compound 1f, (E)-1,3-bis(4-chlorophenyl)prop-2-en-1-one] | no | 100 | 57 | 48.9 | 67.6 | 100 | no | no | −0.24 |  |  |  |  | 
4 | O=c1[nH]c(=S)[nH]c2nc(-c3ccc(Cl)cc3)cc(-c3ccccc3)c12 [Compound 2b, 7-(4-chlorophenyl)-5-phenyl-2-thioxo-2,3-dihydropyrido [2,3-d]pyrimidin-4(1H)-one] | no | 75.1 | 26 | 47.9 | 83.5 | 100 | no | 1% | −0.87 |  |  |  |  | 
5 | O=C(/C=C/c1ccc(Cl)cc1Cl)c1ccccc1 [Compound 1g, (E)-3-(2,4-dichlorophenyl)-1-phenylprop-2-en-1-one] |  | 100 | 32.7 |  |  | 10.8 | 2% | 8% | −0.21 | 2.1 | no | no |  | 
6 | O=c1[nH]c(=S)[nH]c2nc(-c3ccc(Cl)cc3)cc(-c3ccc(Cl)cc3)c12 [Compound 2f, 5,7-bis(4-chlorophenyl)-2-thioxo-2,3-dihydropyrido [2,3-d]pyrimidin-4(1H)-one] | no |  |  | 48.6 | 88.1 | 100 | no | no | −0.91 |  |  |  | no | 73.4
7 | O=C(/C=C/c1cccs1)c1ccc(Cl)cc1 [Compound 1d, (E)-1-(4-chlorophenyl)-3-(thiophen-2-yl)prop-2-en-1-one] | no | 72.8 | 53 | 47.4 | 83.2 | 100 | no | no | −0.46 |  |  |  |  | 
8 | O=c1[nH]c(=S)[nH]c2nc(-c3ccccc3)cc(-c3ccc(Cl)cc3)c12 [Compound 2e, 5-(4-chlorophenyl)-7-phenyl-2-thioxo-2,3-dihydropyrido [2,3-d]pyrimidin-4(1H)-one] | no | 22.9 |  | 48 | 83.9 | 82.1 | 24% | 42% | −0.87 |  |  |  |  | 
9 | O=c1[nH]c(=S)[nH]c2nc(-c3ccc(Cl)cc3)cc(-c3cccs3)c12 [Compound 2d, 7-(4-chlorophenyl)-5-(thiophen-2-yl)-2-thioxo-2,3-dihydropyrido [2,3-d]pyrimidin-4(1H)-one] | no | 50 |  | 48.6 | 100 | 100 | no | no | −0.80 |  |  |  |  | 
10 | O=C(/C=C/c1ccc(Cl)cc1Cl)c1ccc(Cl)cc1 [Compound 1h, (E)-1-(4-chlorophenyl)-3-(2,4-dichlorophenyl)prop-2-en-1-one] | no | 25.4 |  | 49.1 | 81.1 | 100 | no | no | −0.05 |  |  |  |  | 
11 | O=c1[nH]c(=S)[nH]c2nc(-c3ccccc3)cc(-c3ccccc3)c12 [Compound 2a, 5,7-diphenyl-2-thioxo-2,3-dihydropyrido [2,3-d]pyrimidin-4(1H)-one] | no | 100 | 85.6 | 56.4 | 75 | 80.9 | 29% | 56% | −0.95 |  |  |  |  | 
12 | O=C(/C=C/c1ccccc1)c1ccc(Cl)cc1 [Compound 1b, (E)-1-(4-chlorophenyl)-3-phenylprop-2-en-1-one] | no | 28.1 |  | 49.2 | 88.1 | 100 | no | 4% | −0.50 |  |  |  |  | 
13 | O=c1[nH]c(=S)[nH]c2nc(-c3ccccc3)cc(-c3cccs3)c12 [Compound 2c, 7-phenyl-5-(thiophen-2-yl)-2-thioxo-2,3-dihydropyrido [2,3-d]pyrimidin-4(1H)-one] | no | 16.1 |  | 49.4 | 63.6 | 100 | 14% | 10% | −0.83 |  |  |  |  | 
14 | O=C(/C=C/c1ccc(Cl)cc1)c1ccccc1 [Compound 1e, (E)-3-(4-chlorophenyl)-1-phenylprop-2-en-1-one] | no | 100 | 89.9 |  | 6.8 | 36.8 | no | no | −0.50 |  |  |  |  | 
